Measurements taken from patent US10517871B2, “Survivin-targeting anti-tumor agents and uses thereof” (Indiana University Research and Technology Corporation, priority 2015, dated 2019).
pIC50: −log10 of the molar value. “Also recorded” adds a separate entry of the source. Residues, ends and D or L forms follow the SMILES beside them. *: point of attachment. Cbz = O=C(OCc1ccccc1)*

Columns and labels:
[1] = test system: cancer cells; conditions: read-out: IC50 for proliferation of cancer cells; cited from earlier work
[2] = molecular target: survivin (Homo sapiens, UniProt O15392); conditions: cited from earlier work
[3] = molecular target: survivin and its partner Ran protein (Homo sapiens, UniProt O15392); conditions: cited from earlier work
[4] = molecular target: T1, survivin in PC3 cells (Homo sapiens, UniProt O15392); assay: Proteasome inhibitor reversal of compound-induced survivin degradation; assay type: cell-based; conditions: for effect of proteasome inhibitor on LQZ-7F-induced survivin degradation: co-treatment with LQZ-7F
T1 construct: endogenous in cells; host or cells: PC-3 cells

[5] = test system: DU145 cells; assay: MTT cell survival assay, DU145; assay type: cell-based, human; conditions: compared with LQZ-7
Protocol: (§1) Human prostate cancer cell lines DU145 (top) and PC3 cells (bottom) were cultured in the presence of vehicle DMSO or 20 μM compounds off in-silico screening for 3 days followed by MTT assay. Cells survived in the presence of various compounds were normalized to that treated by DMSO vehicle. Arrows indicate compounds that inhibited >50% in cell survival. (*p<0.05; **p<0.01).
(§2) These assays were performed as previously described^49,50. Briefly, MTT assay were performed by seeding 2500 cells in 96-well plate and cultured 24 hours before addition of survivin inhibitors at different concentrations and continuous culture for 3 days. The cells were then subjected to MTT assay. For colony formation assay, 100 cells/well were seeded in 6-well plates and cultured for 24 hours before addition of survivin inhibitors or DMSO vehicle. The cells were continuously cultured in the presence of survivin inhibitors or DMSO for 10-14 days followed by staining with crystal violet and counting manually.

[6] = test system: PC-3 cells; assay: MTT cell survival assay, PC-3; assay type: cell-based, human; conditions: PC3, MTT, compared with LQZ-7
Protocol: as §1, §2

[7] = test system: multiple human cancer cell lines (acute myeloid leukemia, breast, colon, lung, pancreas, prostate, ovary); assay: MTT assay, multiple human cancer cell lines; assay type: cell-based; conditions: range over all cell lines tested, read-out: IC50 for survival of cancer cell lines
Protocol: Toward this goal, we tested the effect of LQZ-7F on survival of multiple human cancer cell lines representing acute myeloid leukemia and cancers of breast, colon, lung, pancreas, prostate, and ovary using MTT assay.
as §2

[8] = molecular target: T2, survivin in DU145 cells (Homo sapiens, UniProt O15392); assay: Western blot of endogenous survivin, DU145; assay type: cell-based; conditions: vs vehicle
T2 construct: endogenous in cells; host or cells: DU145

[9] = molecular target: T1, survivin in PC3 cells; assay: Western blot of endogenous survivin, PC3; assay type: cell-based; conditions: vs vehicle
[10] = molecular target: T3, ectopic Flag-tagged survivin in HEK293 cells (Homo sapiens, UniProt O15392); assay: Western blot of ectopic tagged survivin in HEK293; assay type: cell-based
T3 construct: expressed in transfected cells; host or cells: HEK293 cells, CMV promoter

[11] = molecular target: T4, survivin in DU145 and PC-3 cells (Homo sapiens, UniProt O15392); assay: Survivin half-life determination (cycloheximide chase); assay type: cell-based; conditions: PC-3, cycloheximide pre-treated, 5 μM LQZ-7F
T4 construct: endogenous in cells; host or cells: DU145 and PC-3 cells
Protocol: PC-3 cells were pre-treated with cycloheximide (CHX) to inhibit protein synthesis followed by chasing for different times in the presence of LQZ-7F or DMSO control and Western blot analysis of remaining survivin.
The effect of survivin inhibitor on the half-life of survivin was determined as previously described^51. […] The cells were then harvested for Western blot analysis of survivin.

[12] = molecular target: purified survivin (Homo sapiens, UniProt O15392); assay: Pull-down assay with sepharose-immobilized compound; assay type: binding; conditions: CNBr-activated sepharose, vs control beads
Excerpt: LQZ-7F was immobilized onto CNBr-activated Sepharose and used to pull down recombinant survivin, followed by separation on SDS-PAGE and silver staining.
To investigate if LQZ-7F indeed binds to survivin, we took advantage of the primary amine group and immobilized LQZ-7F onto CNBr-activated sepharose for a pull-down assay using purified survivin.

[13] = test system: PC3 cells; assay: Colony formation assay, PC3; assay type: cell-based, human; parameters: unit of the concentration uncertain; conditions: control approximately 62%
Protocol: as §2

[14] = test system: A549 cells; assay: Colony formation assay, A549; assay type: cell-based, human; conditions: control 45%
Protocol: as §2

[15] = test system: PC-3 cells; assay: Microtubule structure by α-tubulin immunostaining; assay type: cell-based, human; conditions: PC-3, 2 μM, 24 hours
Protocol: PC3 cells were treated without or with 2 μM LQZ-7F for 24 hours followed by immunostaining of α-tubulin and counter-stained with DAPI. The images were captured using confocal microscopy.

[16] = test system: PC-3 xenograft tumors; assay: PC-3 xenograft mouse model efficacy; assay type: in vivo, NOD/SCID mice
Protocol: We next determined if LQZ-7F is active in suppressing tumor growth in vivo using xenograft animal model. For this purpose, NOD/SCID mice were first implanted subcutaneously with PC-3 cells to establish xenograft tumors. PC-3 cell was chosen because it has highest IC50 (FIG. 6). When the xenograft tumor reached the size of ˜100 mm^3, the mice were randomized into two groups and treated with 25 mg/kg LQZ-7F or vehicle control via IP injection once every three days for total of 8 treatments. The growth of the xenograft tumors were measured using a caliper and body weight was monitored every three days for a total of 30 days. […] In fact, the body weight of the control group dropped slightly possibly due to disease burden of xenograft tumors. This symptom appears to be alleviated by LQZ-7F treatment, consistent with smaller tumor size in the treatment group.
For efficacy study, 3×10^6 PC-3 cells were injected subcutaneously in the flanks of 10 NOD/SCID mice. When the tumor volume reached about 100 mm^3, the mice were randomized into two different groups (5/group) with one group treated by vehicle control and the other by LQZ-7F at 25 mg/kg via IP injection once every three days for total of 8 treatments. Tumor volume and body weight were measured […]. On the 30th day after the initial treatment, mice were euthanized and the tumor tissues were harvested, weighed, and subjected to hematoxylin and eosin (H&E) staining as well as Western blot and immunohistochemistry analysis of survivin.

[17] = test system: human cancers; conditions: several phase II trials; cited from earlier work
[18] = molecular target: T5, 14-3-3σ (Homo sapiens, UniProt P31947); assay: Non-denaturing PAGE of 14-3-3σ dimerization; assay type: biochemical; conditions: 100 μM
T5 sequence (P31947 1-248): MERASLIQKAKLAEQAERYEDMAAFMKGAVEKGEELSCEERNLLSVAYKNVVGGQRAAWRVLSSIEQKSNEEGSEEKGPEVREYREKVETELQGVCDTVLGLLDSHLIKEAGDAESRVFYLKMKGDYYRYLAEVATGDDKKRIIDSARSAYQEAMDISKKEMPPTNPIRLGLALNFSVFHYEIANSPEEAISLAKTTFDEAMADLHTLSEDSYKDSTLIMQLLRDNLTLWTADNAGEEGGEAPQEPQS
Protocol: After centrifugation at 11,000×g for 10 minutes, the supernatants were separated by electrophoresis on 15% Tris/glycine polyacrylamide gel followed by transfer to PVDF membrane for western blot analysis as previously described^48.

[19] = test system: survivin mRNA in DU145 cells; assay: Real-time RT-PCR of survivin mRNA; assay type: cell-based, human; conditions: DU145, 48 hrs

T1 sequence (O15392 whole entry): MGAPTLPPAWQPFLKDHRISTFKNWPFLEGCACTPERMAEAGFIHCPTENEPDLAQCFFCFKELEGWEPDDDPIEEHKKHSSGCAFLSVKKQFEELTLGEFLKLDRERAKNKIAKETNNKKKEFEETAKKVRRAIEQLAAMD
T3 sequence (O15392 whole entry): as above
T4 sequence (O15392 whole entry): as above
survivin, sequence (O15392 whole entry): as above
survivin and its partner Ran protein, sequence (O15392 whole entry): as above
T2 sequence (O15392 whole entry): as above
purified survivin, sequence (O15392 whole entry): as above

For N#Cc1c(-c2cc(OCc3ccccc3)cc(OCc3ccccc3)c2)cc(-c2cc(Cl)ccc2O)[nH]c1=O [LLP3], the pIC50 [1] is given as 4.42 to 4.85, the “effect on survivin dimerization or its expression” value [2] is given as “no effect” and the “interaction between survivin and Ran protein” value [3] is given as “inhibited”.
For CC(C)C[C@H](NC(=O)[C@H](Cc1ccccc1)NC(=O)c1cnccn1)B(O)O [bortezomib], the “effect of proteasome inhibitor on LQZ-7F-induced survivin degradation” value [4] was “able to rescue”.
In the case of Nc1nonc1C(=O)N/N=C1\c2ccccc2-c2nc3nonc3nc21 [LQZ-7F], the IC50 in words [5] was “lower IC50 than the parent compound”, the IC50 in words [6] was “lower IC50 than the parent compound” and the pIC50 [7] was 5.36 to 6.40. For the same molecule, the “endogenous survivin protein level” value [8] was “effectively suppressed”, the “endogenous survivin protein level” value [9] was “effectively suppressed” and the “level of ectopic tagged survivin” value [10] was “reduced survivin protein level; also recorded: completely eliminated survivin”. For the same molecule, the “degradation of endogenous survivin” value [11] was “increased degradation”, the “pull-down of survivin by immobilized compound” value [12] was “successfully pulled down” and the colony formation efficiency ([13]; PC3, 0.2 (unit uncertain)) was “approximately 52%”. For the same molecule, the colony formation efficiency ([13]; PC3, 0.5 (unit uncertain)) was roughly 12%, the colony formation efficiency ([13]; PC3, 1 (unit uncertain)) was roughly 8% and the colony formation efficiency ([14]; A549, 0.2) was “approximately 2.5%”. The colony formation efficiency ([14]; A549, 0.5) was roughly 0%, the microtubule structure [15] was “severely disrupted” and the mitotic arrest [15] was “many cells are arrested in mitotic phase”. For the same molecule, the “body weight of mice” value ([16]; 25 mg/kg IP once every three days, 8 treatments) was “remained constant”, the “growth of xenograft tumors” value ([16]; 25 mg/kg IP once every three days, 8 treatments, vs vehicle) was “significantly inhibited” and the “average weight of final tumors” value ([16]; 25 mg/kg IP, day 30, vs control group) was “significantly less”. The “apoptotic cells in tumors” value ([16]; 25 mg/kg IP, vs control-treated tumors) was “more apoptotic cells” and the “survivin in xenograft tumors” value ([16]; Western blot and IHC, vs control-treated group) was “dramatically reduced”.
In the case of CC(C)C[C@@H](C=O)NC(=O)[C@H](CC(C)C)NC(=O)[C@H](CC(C)C)NC(=O)OCc1ccccc1 [MG132] (Cbz-Leu-Leu-Leu-aldehyde), the “effect of proteasome inhibitor on LQZ-7-induced survivin loss” value ([4]; co-treatment with LQZ-7, PC-3) was “reversed” and the “effect of proteasome inhibitor on LQZ-7F-induced survivin degradation” value [4] was “able to rescue”.
In the case of COCCn1c2c([n+](Cc3cnccn3)c1C)C(=O)c1ccccc1C2=O [YM155], the clinical efficacy [17] is given as “limited or modest at best efficacy”.
With Cc1cccc(Nc2nc3nonc3nc2N/N=C/c2ccc(-c3cccc(C(=O)O)c3)o2)c1C [LQZ-7] the “effect on 14-3-3σ dimerization” value [18] was “no effect” and the “survivin mRNA level” value [19] was “no effect”.
In the case of Cc1cccc(Nc2nc3nonc3nc2N/N=C/c2cc3c(cc2[N+](=O)[O-])OCO3)c1C [LQZ-7D], the IC50 in words [5] was “low IC50”, the IC50 in words [6] was “low IC50” and the “level of ectopic tagged survivin” value [10] was “no effect”.
With Cc1cccc(Nc2nc3nonc3nc2N/N=C/c2ccc(-c3ccc(Cl)c([N+](=O)[O-])c3)o2)c1C [LQZ-7A] the IC50 in words [5] was “low IC50”, the IC50 in words [6] was “low IC50” and the “level of ectopic tagged survivin” value [10] was “no effect”.
